Measured values: ChEMBL document CHEMBL5131538 (J Med Chem, 2022)

Legend:
Rattus norvegicus [1] = assay: Organ protective activity in aldosterone-induced uninephrectomized Sprague-Dawley rat model assessed as glomerular mesangial proliferation in kidney by measuring pathological lesion score at 3 mg/kg/day by PAS and H and E staining based histological analysis (reference value: 1.9 +/- 0.5); format: functional
[2] = target: T1, Mineralocorticoid receptor (Rattus norvegicus, UniProt P22199)
T1 sequence (P22199 whole entry): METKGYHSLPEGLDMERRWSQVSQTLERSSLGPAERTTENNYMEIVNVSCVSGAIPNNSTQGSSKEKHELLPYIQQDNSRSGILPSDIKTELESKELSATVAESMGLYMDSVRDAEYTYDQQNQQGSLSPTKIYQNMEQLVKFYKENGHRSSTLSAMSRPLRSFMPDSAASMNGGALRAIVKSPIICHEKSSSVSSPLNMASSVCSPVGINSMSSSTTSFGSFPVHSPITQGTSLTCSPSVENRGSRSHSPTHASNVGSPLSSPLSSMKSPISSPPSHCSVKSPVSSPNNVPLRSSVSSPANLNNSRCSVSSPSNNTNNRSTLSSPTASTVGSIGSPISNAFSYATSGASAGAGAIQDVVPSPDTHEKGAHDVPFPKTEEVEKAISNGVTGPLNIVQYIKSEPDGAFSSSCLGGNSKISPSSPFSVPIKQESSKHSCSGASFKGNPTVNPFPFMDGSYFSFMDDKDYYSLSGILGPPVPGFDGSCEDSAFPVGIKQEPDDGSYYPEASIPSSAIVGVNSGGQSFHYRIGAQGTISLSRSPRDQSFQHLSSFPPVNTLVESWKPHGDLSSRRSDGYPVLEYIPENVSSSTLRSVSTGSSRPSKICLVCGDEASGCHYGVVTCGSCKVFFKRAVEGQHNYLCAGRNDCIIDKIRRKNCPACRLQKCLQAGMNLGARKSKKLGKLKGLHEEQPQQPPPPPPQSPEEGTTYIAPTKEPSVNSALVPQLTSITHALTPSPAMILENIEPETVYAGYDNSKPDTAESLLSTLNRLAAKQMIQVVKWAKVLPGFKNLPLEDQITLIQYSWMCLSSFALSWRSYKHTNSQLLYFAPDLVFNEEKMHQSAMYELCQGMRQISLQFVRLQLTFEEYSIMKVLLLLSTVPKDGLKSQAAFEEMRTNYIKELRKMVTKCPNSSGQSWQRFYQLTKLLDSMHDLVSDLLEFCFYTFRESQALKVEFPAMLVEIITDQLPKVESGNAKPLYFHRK
Description: Displacement of [3H]-aldosterone from rat mineralocorticoid receptor incubated overnight by liquid scintillation counting analysis

Rattus norvegicus [3] = assay: Organ protective activity in aldosterone-induced uninephrectomized Sprague-Dawley rat model assessed as interstitial cellular infiltration in kidney by measuring pathological lesion score at 3 mg/kg/day by PAS and H and E staining based histological analysis (reference value: 1.4 +/- 0.4); format: functional

With CC1(C)Oc2cc(NS(C)(=O)=O)ccc2N(c2ccc(F)cc2)C1=O [MT-3995] the Activity (Rattus norvegicus [1]) was 0.3, the Ki [2] was 30.8 nM and the Activity (Rattus norvegicus [3]) was 0.3.
